Measurements: article PMC12363342, “Investigating the N-terminal linker histone H1 subtypes as substrates for JmjC lysine demethylases” (RSC Chemical Biology, 2025)
Square brackets hold non-standard residues; d marks the D form. Ends that are not written are not given here. Lys(Me2) = CN(C)CCCC[C@H](N)C(=O)O

Experiments:
KDM3A = experiment: LC-MS demethylation activity assay, KDM3A; type: biochemical, human; conditions: 2 μM KDM, 10 μM H1/H3 peptide, 10 μM FAS, 100 μM LAA, 20 μM 2OG, 50 mM HEPES pH 7.5, 2 h, room temperature; for KDM3A demethylation activity, M: M (mono-) initial methylation state; for KDM3A demethylation activity, D: D (di-) initial methylation state
Experimental: (§1) The substrate specificity of JmjC KDMs for H1 was examined using liquid chromatography coupled to mass spectrometry (LC-MS) assays. The H1 peptides (10 μM) were incubated with the recombinant KDM (2 μM) in HEPES buffer at pH 7.5 at room temperature for 2 h, in the presence of ferrous(II) ammonium sulfate (FAS, 10 μM), sodium ascorbate (LAA, 100 μM) and 2OG (20 μM), and then quenched with formic acid. N^ε-Methylated H3K9 and H3K36 peptides were used as positive controls (Fig. 3–5 and Fig. S2–S6).[26]
(§2) The catalytic domains of the JmjC KDMs used were recombinantly produced as reported in either Escherichia coli (KDM4AM1-L359,[38] KDM4DM1-L359,[39] KDM4EM1-R336,[30] KDM6BD1141–E1590[40] and KDM3CL2157-L2500) or Sf9 cells (KDM3AT515–S1317, KDM3B882–1761, and KDM5DM1-D775) as N-terminally His6-tagged proteins. […] To produce proteins, DNA sequences encoding for KDM3A, KDM3B and KDM5D were inserted into the pFB-LIC vector, containing a TEV-protease cleavable N-terminal 6x-histidine tag via ligation independent cloning (LIC). The resultant plasmids were transformed into baculovirus and Sf9 cells ([…]) which were infected with the virus stock. The cells were grown at 27 °C and 90 rpm for 70 h. Cells were then harvested and suspended in 100 mL of lysis buffer (50 mM HEPES-NaOH, pH 7.4, 500 mM NaCl, 20 mM imidazole, 0.5 mM Tris (2-carboxyethyl)phosphine (TCEP), 5% (v/v) glycerol). […] The supernatant was loaded onto a Ni-NTA gravity column, washed with 10 column volume of lysis buffer and eluted using the elution buffer (50 mM HEPES-NaOH, pH 7.4, 500 mM NaCl, 300 mM imidazole, 0.5 mM TCEP, 5% (v/v) glycerol). The eluted protein was further purified using S200 gel filtration column chromatography (50 mM HEPES-NaOH, pH 7.4, 150 mM NaCl, 0.5 mM TCEP and 5% glycerol). Protein purity was analysed by SDS-PAGE and further confirmed by mass spectrometry. Selected fractions were pooled, concentrated and stored at −80 °C.
(§3) All reagents were purchased from Sigma Aldrich and were of the highest grade available. Ferrous(II) ammonium sulfate (FAS) solutions were prepared freshly by dissolving FAS to 400 mM in 20 mM HCl with subsequent dilution to 1 mM using deionized water. Fresh 2OG (10 mM) and LAA (50 mM) solutions were prepared by dissolving the solids in deionised water. All enzyme reactions were performed in 384-well plates (Greiner Bio-One) with a final reaction volume of 50 μL. Substrate mixtures contained 50 mM HEPES pH 7.5, LAA (100 μM), FAS (10 μM), 2OG (20 μM) and an H1 isoform peptide (10 μM). Reactions were initiated by the addition of enzyme to a final concentration of 2.0 μM. After 2 h, the reactions were stopped by the addition of 5 μL of 10% (v/v) LC-MS grade formic acid (Fisher Scientific) to a final concentration of 1% (v/v). Product analyses were performed by liquid chromatography-mass spectrometry (LC-MS) using an Agilent 1290 infinity II LC system equipped with an Agilent 1290 multisampler and an Agilent 1290 high speed pump and connected to an Agilent 6550 accurate mass iFunnel quadrupole time of flight (Q-TOF) mass spectrometer. 1 μL of the reaction mixture was injected onto a 1.8 μm × 2.1 × 50 mm ZORBAX RRHD Eclipse Plus C18 column (Agilent). Solvent A consisted of HPLC grade water containing 0.1% (v/v) formic acid and solvent B consisted of MeCN containing 0.1% (v/v) formic acid. Peptides were separated using a stepwise gradient (0 min – 95% solvent A, 1.0 min – 80% solvent A, 3.0 min – 45% solvent A, 4.0 min – 45% solvent A, 5.0 min – 0% solvent A, 6.0 min – 0% solvent A, 7.0 min – 95% solvent A). This was followed by a 3 min post-run with 95% solvent A to re-equilibrate the column. All flow rates were 0.2 mL min^−1. A blank injection of HPLC grade water was carried out between each sample injection.

KDM3B = experiment: LC-MS demethylation activity assay, KDM3B; type: biochemical, human; conditions: 2 μM KDM, 10 μM H1/H3 peptide, 10 μM FAS, 100 μM LAA, 20 μM 2OG, 50 mM HEPES pH 7.5, 2 h, room temperature; for KDM3B demethylation activity, M: M (mono-) initial methylation state; for KDM3B demethylation activity, D: D (di-) initial methylation state
Experimental: as §1, §2, §3

KDM3C = experiment: LC-MS demethylation activity assay, KDM3C; type: biochemical, human; conditions: 2 μM KDM, 10 μM H1/H3 peptide, 10 μM FAS, 100 μM LAA, 20 μM 2OG, 50 mM HEPES pH 7.5, 2 h, room temperature; for KDM3C demethylation activity, M: M (mono-) initial methylation state; for KDM3C demethylation activity, D: D (di-) initial methylation state
Experimental: as §1, §2, §3

KDM4A = experiment: LC-MS demethylation activity assay, KDM4A; type: biochemical, human; conditions: 2 μM KDM, 10 μM H1/H3 peptide, 10 μM FAS, 100 μM LAA, 20 μM 2OG, 50 mM HEPES pH 7.5, 2 h, room temperature; for KDM4A demethylation activity, M: M (mono-) initial methylation state; for KDM4A demethylation activity, D: D (di-) initial methylation state
Experimental: as §1, §2, §3

KDM4D = target: T1, KDM4D (Homo sapiens, UniProt Q6B0I6); experiment: LC-MS demethylation activity assay, KDM4D; type: biochemical; conditions: 10 μM FAS, 100 μM LAA, 20 μM 2OG, room temperature; for KDM4D demethylation activity, M / KDM4D demethylation activity, D: 2 μM KDM, 10 μM H1/H3 peptide, 50 mM HEPES pH 7.5, 2 h; for KDM4D demethylation activity, M: M (mono-) initial methylation state; for substrate conversion (demethylation) by KDM4D: 2 μM KDM4D, 10 μM peptide, HEPES pH 7.5, 2 h; for KDM4D demethylation activity, D: D (di-) initial methylation state
T1 construct: KDM4AM1-L359,[38]; KDM4DM1-L359,[39]; KDM4EM1-R336,[30]; His6 (N); made in house; host or cells: Escherichia coli
T1 sequence (Q6B0I6 1-359): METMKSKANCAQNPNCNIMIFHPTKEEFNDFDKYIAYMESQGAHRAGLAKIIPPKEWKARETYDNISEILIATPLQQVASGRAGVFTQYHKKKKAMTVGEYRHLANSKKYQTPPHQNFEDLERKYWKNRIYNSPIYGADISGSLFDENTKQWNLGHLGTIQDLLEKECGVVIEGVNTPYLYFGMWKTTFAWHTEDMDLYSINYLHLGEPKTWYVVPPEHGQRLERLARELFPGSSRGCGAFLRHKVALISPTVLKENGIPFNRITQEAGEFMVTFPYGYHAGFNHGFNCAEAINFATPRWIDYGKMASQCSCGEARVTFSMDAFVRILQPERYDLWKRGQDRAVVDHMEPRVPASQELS
Experimental: as §1, §2, §3

KDM5D = experiment: LC-MS demethylation activity assay, KDM5D; type: biochemical, human; conditions: 2 μM KDM, 10 μM H1/H3 peptide, 10 μM FAS, 100 μM LAA, 20 μM 2OG, 50 mM HEPES pH 7.5, 2 h, room temperature; for KDM5D demethylation activity, M: M (mono-) initial methylation state; for KDM5D demethylation activity, D: D (di-) initial methylation state
Experimental: as §1, §2, §3

KDM6B = experiment: LC-MS demethylation activity assay, KDM6B; type: biochemical, human; conditions: 2 μM KDM, 10 μM H1/H3 peptide, 10 μM FAS, 100 μM LAA, 20 μM 2OG, 50 mM HEPES pH 7.5, 2 h, room temperature; for KDM6B demethylation activity, M: M (mono-) initial methylation state; for KDM6B demethylation activity, D: D (di-) initial methylation state
Experimental: as §1, §2, §3

KDM4E = target: T2, KDM4E (Homo sapiens, UniProt B2RXH2); experiment: LC-MS demethylation activity assay, KDM4E; type: biochemical; conditions: room temperature; for mono-methylated product formed by KDM4E: 2 μM KDM4E, 10 μM peptide, standard conditions, 2 h; for KDM4E demethylation activity, D / KDM4E demethylation activity, M: 2 μM KDM, 10 μM H1/H3 peptide, 10 μM FAS, 100 μM LAA, 20 μM 2OG, 50 mM HEPES pH 7.5, 2 h; for KDM4E demethylation activity, D: D (di-) initial methylation state; for KDM4E demethylation activity, M: M (mono-) initial methylation state
T2 construct: KDM4DM1-L359,[39]; KDM4EM1-R336,[30]; His6 (N); made in house; host or cells: Escherichia coli
T2 sequence (B2RXH2 1-336): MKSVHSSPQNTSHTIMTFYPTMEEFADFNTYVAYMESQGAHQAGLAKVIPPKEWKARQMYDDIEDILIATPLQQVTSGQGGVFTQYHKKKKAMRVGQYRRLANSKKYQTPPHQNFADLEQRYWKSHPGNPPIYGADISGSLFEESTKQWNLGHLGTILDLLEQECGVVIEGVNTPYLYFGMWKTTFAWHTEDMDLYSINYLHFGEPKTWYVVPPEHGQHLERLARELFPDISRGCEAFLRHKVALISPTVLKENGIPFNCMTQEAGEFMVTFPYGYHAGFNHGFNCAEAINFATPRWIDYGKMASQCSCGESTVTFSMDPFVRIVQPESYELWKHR
Experimental: as §1, §2, §3

| Substance | KDM3A demethylation activity, M (KDM3A) | KDM3B demethylation activity, M (KDM3B) | KDM3C demethylation activity, M (KDM3C) | KDM4A demethylation activity, M (KDM4A) | KDM4D demethylation activity, M (KDM4D) | KDM5D demethylation activity, M (KDM5D) | KDM6B demethylation activity, M (KDM6B) | KDM3A demethylation activity, D (KDM3A) | KDM3B demethylation activity, D (KDM3B) | KDM3C demethylation activity, D (KDM3C) | KDM4A demethylation activity, D (KDM4A) | substrate conversion (demethylation) by KDM4D (KDM4D) | KDM4D demethylation activity, D (KDM4D) | mono-methylated product formed by KDM4E (KDM4E) [%] | KDM4E demethylation activity, D (KDM4E) | KDM5D demethylation activity, D (KDM5D) | KDM6B demethylation activity, D (KDM6B) | KDM4E demethylation activity, M (KDM4E) |
| --- | --- | --- | --- | --- | --- | --- | --- | --- | --- | --- | --- | --- | --- | --- | --- | --- | --- | --- |
| KKKAAKKmeAGGTPRKA [Peptide H1.2K26me, 15-mer linker histone H1.2 residues 20-34 peptide, mono-methylated K26] | ● [red] | ● [red] | ● [red] | ● [red] | ● [red] | ● [red] | ● [red] | – | – | – | – | – | – | – | – | – | – | – |
| KKKAAK[Lys(Me2)]AGGTPRKA [Peptide H1.2K26me2, 15-mer linker histone H1.2 residues 20-34 peptide, di-methylated K26] | – | – | – | – | – | – | – | ● [red] | ● [red] | ● [red] | ● [red] | 20–35% | ● [yellow] (yellow dots indicate moderate demethylation (<50% conversion)) | ~64 | ● [green] (green dots indicate good demethylation (>50% conversion)) | ● [red] | ● [red] | – |
| KKKAAKmeKAGGTPRKA [Peptide H1.2K25me, 15-mer linker histone H1.2 residues 20-34 peptide, mono-methylated K25] | ● [red] | ● [red] | ● [red] | ● [red] | ● [red] | ● [red] | ● [red] | – | – | – | – | – | – | – | – | – | – | ● [red] |
| KKKAA[Lys(Me2)]KAGGTPRKA [Peptide H1.2K25me2, 15-mer linker histone H1.2 residues 20-34 peptide, di-methylated K25] | – | – | – | – | – | – | – | ● [red] | ● [red] | ● [red] | ● [black] (black dots indicate low-level demethylation (<10% conversion)) | 20–35% | ● [red] | ~64 | ● [red] | ● [red] | ● [red] | – |
| KKKAKKmeAGATAGKRK [Peptide H1.3K25me, 15-mer linker histone H1.3 residues 20-34 peptide, mono-methylated K25] | ● [red] | ● [red] | ● [red] | ● [red] | ● [red] | ● [red] | ● [red] | – | – | – | – | – | – | – | – | – | – | ● [red] |
| KKKAK[Lys(Me2)]AGATAGKRK [Peptide H1.3K25me2, 15-mer linker histone H1.3 residues 20-34 peptide, di-methylated K25] | – | – | – | – | – | – | – | ● [red] | ● [red] | ● [red] | ● [red] | – | ● [red] | – | ● [red] | ● [red] | ● [red] | – |
| KKKAKmeKAGATAGKRK [Peptide H1.3K24me, 15-mer linker histone H1.3 residues 20-34 peptide, mono-methylated K24] | ● [red] | ● [red] | ● [red] | ● [red] | ● [red] | ● [red] | ● [red] | – | – | – | – | – | – | – | – | – | – | – |
| KKKARKmeSAGAAKRKA [Peptide H1.4K25me, 15-mer linker histone H1.4 residues 20-34 peptide, mono-methylated K25] | ● [red] | ● [red] | ● [red] | ● [red] | ● [black] (black dots indicate low-level demethylation (<10% conversion)) | ● [red] | ● [red] | – | – | – | – | – | – | – | – | – | – | – |
